Results taken from patent US11332452B2, “Pesticidal compositions and methods” (priority 2019, dated 2022).

Tests used:
Type in all cases: in vivo
[1] = system: Yellow Fever Mosquito (Aedes aegypti, AEDSAE); assay: Insecticidal test for yellow fever mosquito (YFM), 96-well plate larval assay; conditions: from 4000 ppm DMSO master solution, diluted; about 1 day-old larvae; room temperature; scored after 3 days
Method: Insecticidal Test for Yellow Fever Mosquito (Aedes aegypti, AEDSAE) (“YFM”)
Master plates containing 400 μg of a molecule dissolved in 100 μL of dimethyl sulfoxide (DMSO) (equivalent to a 4000 ppm solution) are used. A master plate of assembled molecules contains 15 μL per well. To this plate, 135 μL of a 90:10 water/acetone mixture is added to each well. A robot (Biomek® NXP Laboratory Automation Workstation) is programmed to dispense 15 μL aspirations from the master plate into an empty 96-well shallow plate (“daughter” plate). There are 6 reps (“daughter” plates) created per master. The created “daughter” plates are then immediately infested with YFM larvae.
The day before plates are to be treated, mosquito eggs are placed in Millipore water containing liver powder to begin hatching (4 g. into 400 mL). After the “daughter” plates are created using the robot, they are infested with 220 μL of the liver powder/larval mosquito mixture (about 1 day-old larvae). After plates are infested with mosquito larvae, a non-evaporative lid is used to cover the plate to reduce drying. Plates are held at room temperature for 3 days prior to grading. After 3 days, each well is observed and scored based on mortality.

[2] = system: Beet Armyworm (Spodoptera exigua, LAPHEG); assay: Insecticidal test for beet armyworm (BAW), 128-well diet tray assay; conditions: 168 h, 50 μg/cm^2 of test compound on artificial diet, second instar larvae, 25° C., five to seven days, average of eight wells, read-out: BAW % Control (or Mortality) rating
Method: Insecticidal Test for Beet Armyworm (Spodoptera exigua, LAPHEG) (“BAW”)
(§1) Bioassays on beet armyworm (BAW; Spodoptera exigua: Lepidoptera) are conducted using a 128-well diet tray assay. One to five second instar BAW larvae are placed in each well (3 mL) of the diet tray that had been previously filled with 1 mL of artificial diet to which 50 μg/cm^2 of the test compound (dissolved in 50 μL of 90:10 acetone-water mixture) had been applied (to each of eight wells) and then allowed to dry. Trays are covered with a clear self-adhesive cover, vented to allow gas exchange, and held at 25° C., 14:10 light-dark for five to seven days. Percent mortality is recorded for the larvae in each well; activity in the eight wells is then averaged.

[3] = system: Cabbage Looper (Trichloplusia Ni, TRIPNI); assay: Insecticidal test for cabbage looper (CL), 128-well diet tray assay; conditions: Trichoplusia ni, 168 h, read-out: CL % Control (or Mortality) rating
Method: Insecticidal Test for Cabbage Looper (Trichloplusia Ni, TRIPNI) (“CL”)
as §1, with “cabbage looper (CL; Trichloplusia ni:” for “beet armyworm (BAW; Spodoptera exigua:”, “CL” for “BAW”

O=C(/N=C1\SCC(=O)N1c1cccc2c1CCCC2)NCCc1ccc(NC(=O)Nc2ccc(OC(F)(F)F)cc2)cc1 [Compound A24, (Z)-1-(4-(2-(3-(4-Oxo-3-(5,6,7,8-tetrahydronaphthalen-1-yl)thiazolidin-2-ylidene)ureido)ethyl)phenyl)-3-(4-(trifluoromethoxy)phenyl)urea]
YFM % Control (or Mortality) rating [1]: B (More than 0-Less than 80)
mortality at 50 µg/cm2 [2]: 50 to 100%
mortality at 50 µg/cm2 [3]: 50 to 100%

Cc1ccc(C(C)C)c(N2C(=O)CS/C2=N\C(=O)Nc2ccc(C(=O)NNc3ccc(OC(F)(F)F)cc3)cc2)c1 [Compound A2, (Z)-1-(3-(2-Isopropyl-5-methylphenyl)-4-oxothiazolidin-2-ylidene)-3-(4-(2-(4-(trifluoromethoxy)phenyl)hydrazine-1-carbonyl)phenyl)urea]
YFM % Control (or Mortality) rating [1]: A (80-100)
mortality at 50 µg/cm2 [2]: 50 to 100%
mortality at 50 µg/cm2 [3]: 50 to 100%

CC(C)c1ccc(Cl)cc1N1C(=O)CS/C1=N\C(=O)NCCc1ccc(NC(=O)Nc2ccc(C(F)(F)F)cc2)cc1 [Compound A13, (Z)-1-(4-(2-(3-(3-(5-Chloro-2-isopropylphenyl)-4-oxothiazolidin-2-ylidene)ureido)ethyl)phenyl)-3-(4-(trifluoromethyl)phenyl)urea]
YFM % Control (or Mortality) rating [1]: A (80-100)
mortality at 50 µg/cm2 [2]: 50 to 100%
mortality at 50 µg/cm2 [3]: 50 to 100%

CC(Cc1ccc(NC(=O)Nc2ccc(OC(F)(F)F)cc2)cc1)NC(=O)/N=C1\SCC(=O)N1c1cc(Cl)ccc1C(C)C (stereo not drawn) [Compound A35, (Z)-1-(4-(2-(3-(3-(5-Chloro-2-isopropylphenyl)-4-oxothiazolidin-2-ylidene)ureido)propyl)phenyl)-3-(4-(trifluoromethoxy)phenyl)urea]
YFM % Control (or Mortality) rating [1]: A (80-100)
mortality at 50 µg/cm2 [2]: 50 to 100%
mortality at 50 µg/cm2 [3]: 50 to 100%

CC(Cc1ccc(NC(=O)Nc2ccc(OC(F)(F)F)cc2)cc1)NC(=O)/N=C1\SCC(=O)N1c1cccc2c1CCCC2 (stereo not drawn) [Compound A42, (Z)-1-(4-(2-(3-(4-Oxo-3-(5,6,7,8-tetrahydronaphthalen-1-yl)thiazolidin-2-ylidene)ureido)propyl)phenyl)-3-(4-(trifluoromethoxy)phenyl)urea]
YFM % Control (or Mortality) rating [1]: A (80-100)
mortality at 50 µg/cm2 [2]: 50 to 100%
mortality at 50 µg/cm2 [3]: 50 to 100%

CCc1cccc(C)c1N1C(=O)CS/C1=N\C(=O)NC(C)Cc1ccc(NC(=O)Nc2ccc(OC(F)(F)F)cc2)cc1 (stereo not drawn) [Compound A40, (Z)-1-(4-(2-(3-(3-(2-Ethyl-6-methylphenyl)-4-oxothiazolidin-2-ylidene)ureido)propyl)phenyl)-3-(4-(trifluoromethoxy)phenyl)urea]
YFM % Control (or Mortality) rating [1]: A (80-100)
mortality at 50 µg/cm2 [2]: 50 to 100%
mortality at 50 µg/cm2 [3]: 50 to 100%

Cc1ccc(C(C)C)c(N2C(=O)CS/C2=N\C(=O)Nc2ccc(CNC(=O)Nc3ccc(OC(F)(F)F)cc3)cc2)c1 [Compound A43, (Z)-1-(4-(3-(3-(2-isopropyl-5-methylphenyl)-4-oxothiazolidin-2-ylidene)ureido)benzyl)-3-(4-(trifluoromethoxy)phenyl)urea]
YFM % Control (or Mortality) rating [1]: A (80-100)
mortality at 50 µg/cm2 [2]: 50 to 100%
mortality at 50 µg/cm2 [3]: 50 to 100%

Cc1cc(Cl)c(N2C(=O)CS/C2=N\C(=O)NC(C)Cc2ccc(NC(=O)Nc3ccc(OC(F)(F)F)cc3)cc2)cc1C (stereo not drawn) [Compound A41, (Z)-1-(4-(2-(3-(3-(2-Chloro-4,5-dimethylphenyl)-4-oxothiazolidin-2-ylidene)ureido)propyl)phenyl)-3-(4-(trifluoromethoxy)phenyl)urea]
YFM % Control (or Mortality) rating [1]: B (More than 0-Less than 80)
mortality at 50 µg/cm2 [2]: 50 to 100%
mortality at 50 µg/cm2 [3]: 50 to 100%

Cc1ccc(C(C)C)c(N2C(=O)CS/C2=N\C(=O)Nc2ccc(NC(=S)Nc3ccc(OC(F)(F)F)cc3)cc2)c1 [Compound A45, (Z)-1-(3-(2-isopropyl-5-methylphenyl)-4-oxothiazolidin-2-ylidene)-3-(4-(3-(4-(trifluoromethoxy)phenyl)thioureido)phenyl)urea]
YFM % Control (or Mortality) rating [1]: A (80-100)
mortality at 50 µg/cm2 [2]: 50 to 100%
mortality at 50 µg/cm2 [3]: 50 to 100%

Cc1ccc(C(C)C)c(N2C(=O)CS/C2=N\C(=O)NCCc2ccc(NC(=O)Nc3ccc(OC(F)(F)F)cc3)cc2)c1 [Compound A8, (Z)-1-(3-(2-isopropyl-5-methylphenyl)-4-oxothiazolidin-2-ylidene)-3-(4-(3-(4-(trifluoromethoxy)phenyl)ureido)phenethyl)urea]
YFM % Control (or Mortality) rating [1]: A (80-100)
mortality at 50 µg/cm2 [2]: 50 to 100%
mortality at 50 µg/cm2 [3]: 50 to 100%

Cc1ccc(C(C)C)c(N2C(=O)CS/C2=N\C(=O)NC(C)Cc2ccc(NC(=O)Nc3ccc(C(F)(F)F)cc3)cc2)c1 (stereo not drawn) [Compound A27, (Z)-1-(4-(2-(3-(3-(2-Isopropyl-5-methylphenyl)-4-oxothiazolidin-2-ylidene)ureido)propyl)phenyl)-3-(4-(trifluoromethyl)phenyl)urea]
YFM % Control (or Mortality) rating [1]: A (80-100)
mortality at 50 µg/cm2 [2]: 50 to 100%
mortality at 50 µg/cm2 [3]: 50 to 100%

CCc1cccc(C)c1N1C(=O)CS/C1=N\C(=O)NCCc1ccc(NC(=O)Nc2ccc(OC(F)(F)F)cc2)cc1 [Compound A23, (Z)-1-(4-(2-(3-(3-(2-Ethyl-6-methylphenyl)-4-oxothiazolidin-2-ylidene)ureido)ethyl)phenyl)-3-(4-(trifluoromethoxy)phenyl)urea]
YFM % Control (or Mortality) rating [1]: A (80-100)
mortality at 50 µg/cm2 [2]: 50 to 100%
mortality at 50 µg/cm2 [3]: 50 to 100%

Cc1ccc(OCC(F)(F)F)c(N2C(=O)CS/C2=N\C(=O)Nc2ccc(C(=O)NNc3ccc(OC(F)(F)F)cc3)cc2)c1 [Compound A3, (Z)-1-(3-(5-methyl-2-(2,2,2-trifluoroethoxy)phenyl)-4-oxothiazolidin-2-ylidene)-3-(4-(2-(4-(trifluoromethoxy)phenyl)hydrazine-1-carbonyl)phenyl)urea]
YFM % Control (or Mortality) rating [1]: D (No activity noticed in this bioassay)
mortality at 50 µg/cm2 [2]: 50 to 100%
mortality at 50 µg/cm2 [3]: 50 to 100%

CCC(C)Oc1ccc(C)cc1N1C(=O)CS/C1=N\C(=O)NC(C)Cc1ccc(NC(=O)Nc2ccc(OC(F)(F)F)cc2)cc1 (stereo not drawn) [Compound A39, (Z)-1-(4-(2-(3-(3-(2-(sec-Butoxy)-5-methylphenyl)-4-oxothiazolidin-2-ylidene)ureido)propyl)phenyl)-3-(4-(trifluoromethoxy)phenyl)urea]
YFM % Control (or Mortality) rating [1]: D (No activity noticed in this bioassay)
mortality at 50 µg/cm2 [2]: 50 to 100%
mortality at 50 µg/cm2 [3]: 50 to 100%

Cc1ccc(C(C)C)c(-n2ccs/c2=N\C(=O)NCCc2ccc(NC(=O)Nc3ccc(C(F)(F)F)cc3)cc2)c1 [Compound A14, (Z)-1-(4-(2-(3-(3-(2-Isopropyl-5-methylphenyl)thiazol-2(3H)-ylidene)ureido)ethyl)phenyl)-3-(4-(trifluoromethyl)phenyl)urea]
YFM % Control (or Mortality) rating [1]: A (80-100)
mortality at 50 µg/cm2 [2]: 50 to 100%
mortality at 50 µg/cm2 [3]: 50 to 100%

CCCc1ccc(OC)cc1N1C(=O)CS/C1=N\C(=O)NCCc1ccc(NC(=O)Nc2ccc(OC(F)(F)F)cc2)cc1 [Compound A18, (Z)-1-(4-(2-(3-(3-(5-Methoxy-2-propylphenyl)-4-oxothiazolidin-2-ylidene)ureido)ethyl)phenyl)-3-(4-(trifluoromethoxy)phenyl)urea]
YFM % Control (or Mortality) rating [1]: B (More than 0-Less than 80)
mortality at 50 µg/cm2 [2]: 50 to 100%
mortality at 50 µg/cm2 [3]: 50 to 100%

Cc1ccc(C(C)C)c(N2C(=O)CS/C2=N\C(=O)Nc2ccc(CCOC(=O)Nc3ccc(OC(F)(F)F)cc3)cc2)c1 [Compound A52, (Z)-4-(3-(3-(2-isopropyl-5-methylphenyl)-4-oxothiazolidin-2-ylidene)ureido)phenethyl (4-(trifluoromethoxy)phenyl)carbamate]
YFM % Control (or Mortality) rating [1]: A (80-100)
mortality at 50 µg/cm2 [2]: 50 to 100%
mortality at 50 µg/cm2 [3]: 50 to 100%

O=C(/N=C1\SCC(=O)N1c1cc(Cl)ccc1OCC(F)(F)F)Nc1ccc(NNC(=O)c2ccc(OC(F)(F)F)cc2)cc1 [Compound A6, (Z)-1-(3-(5-Chloro-2-(2,2,2-trifluoroethoxy)phenyl)-4-oxothiazolidin-2-ylidene)-3-(4-(2-(4-(trifluoromethoxy)benzoyl)hydrazinyl)phenyl)urea]
YFM % Control (or Mortality) rating [1]: D (No activity noticed in this bioassay)
mortality at 50 µg/cm2 [2]: 0%
mortality at 50 µg/cm2 [3]: 0%
